Results from US7572436B1, “Thionin as an antineoplastic and immunostimulant” (priority 2000, dated 2009).
Where no end group is shown, it is not given here.

Assays:
[1] = system: non-adherent human PBLs; experiment: Mitogen assay (^3H-thymidine uptake), human PBLs; assay type: cell-based; conditions: PT 0.01 μg/ml
Text: Murine spleen cells or human peripheral blood lymphocytes (PBLS) were obtained aseptically as described herein for use in the mitogen assay. When murine splenocytes were used, they were first treated with red cell lysing buffer (0.17 M Tris, 0.144 NH4C1, pH 7.2), washed in RPMI-10 (standard RPMI growth medium, Sigma Chemical Co., St. Louis, Mo., supplemented with 10% fetal bovine serum) and viable cells counted using Trypan Blue exclusion. Human PBLs were isolated from blood using HISTOPAQUE™-1077, a solution of FICOLL™ and sodium diatrizoate (Sigma Chemical Co., St. Louis, Mo.), and subsequent washings with RPMI-5 (RPMI supplemented with 5% fetal bovine serum) to remove platelets. Isolated lymphocytes were resuspended in RPMI-10 and a viable cell yield determined by Trypan Blue exclusion.
Drugs and known mitogenic controls were added in triplicate to a 96-well flat bottom microplate aseptically. The culture medium was RPMI-10. Splenocytes or human-lymphocytes were added at a concentration of 3-4×10^5 cells/well, to a final volume of 200 μl/well. The assay plate was incubated at 37° C. in a 5% CO2 humidified incubator. At 48-50 hours, ^3H-thymidine was added (1 μCi/well), and the plate was harvested approximately 16-18 hours later.
Mitogen assay microplates were harvested using an Inotech plate harvester (Inotech Biosystems International, Inc., Rockville, Md.). Counts per minute (cpm) per well were measured using the Berthold-Inotech Trace 96-plate reader (Inotech AT, Wohlen, Switzerland) and/or a scintillation counter (Packard Tri-carb 2100TR, Packard Instrument Co., Meriden, Conn.). Mitogenic activity was directly determined by comparing cpm levels to controls.
To test whether PT stimulates mitogen activity, splenocytes were incubated for two days with IL-2 (50 units/ml) or KLH (20 μg/ml) in conjunction with PT in the concentrations shown. Figures represent the radioactivity counts of tritiated thymidine taken up during a subsequent 20-hour incubation period of cells incubated with tritiated thymidine in RPMI.

[2] = system: Balb C splenocytes; experiment: Mitogen assay (^3H-thymidine uptake), murine splenocytes; assay type: cell-based; conditions: for Cpm, standard mitogen assay: 0.1 μg/ml PT
[3] = Stability of PT (temperature, proteases); assay type: physicochemical
[4] = system: B16F10 melanoma tumor cells; experiment: In vivo inhibition of B16F10 melanoma tumor development; parameters: species or system C57BL/6NCr female mice
Method: C57BL/6NCr female mice (20 g), approximately 50 days old, were shaved in the abdominal area, ear notched for identification, and, two or three days prior to receiving tumor cells, pre-injected subcutaneously with the immunostimulating drugs described.
On “day zero,” B16F10 melanoma tumor cells, cultured in αMEM medium with 10% FBS, were injected intradermally (10^5 cells in 0.1 ml) in the center of the mouse abdomen using a 26 gauge ½ inch needle. Four to five hours later, the drug treatment (as specified) was injected intradermally in a different area of the abdomen than the site of the tumor injection.
Intradermal treatments using the immunostimulatory drug (as specified) continued either every other day or on a Monday-Wednesday-Friday injection schedule. Control tumors (in mice not receiving an immunostimulatory drug) usually formed within seven to ten days. Tumors were examined by visual inspection, measured (length by width), and the area of any resulting lesion was recorded as mm^2 every five days.
Mice were euthanized by CO2 inhalation if the tumor exceeded 500 mm^2. Some experiments were terminated early if all mice in the control group were dead, but the experiments were not less than 20 days. The normal duration of an experiment was about 30 days.
Pyrularia thionin, both alone and in combination with IL-2, was effective in preventing or retarding the development of melanoma tumors when C57BL/6NCr mice were pretreated before injection with B16F10 cells, which produce melanoma tumors.

For “Pyrularia thionin (KSCCRNTWARNCYNVCRLPGTISREICAKKCDCKIISGTTCPSDYPK; ends and bridges not checked; also: labeled with 125I) [PT]”, the “CPM of tritiated thymidine incorporated” value ([1]; RPMI) was 724 ± 212 CPM, the “CPM of tritiated thymidine incorporated” value ([1]; RPMI + IL-2 50 units/ml) was 2,584 ± 527 CPM and the “stimulation of the mitogen reaction” value ([2]; 0.1 μg/ml (PT 20 nM; βME 40 nM)) was “modest”. The “Cpm, standard mitogen assay” value ([2]; GM-CSF (5 ng/ml)) was 822 Cpm, the “Cpm, standard mitogen assay” value ([2]; no GM-CSF) was 243 Cpm and the “interaction with cell membranes after exposure to temperature” value ([3]; 70° C.) was “not influenced”. For the same substance, the resistance to proteases ([3]; common proteases found in blood) was “resistant to the common proteases found in blood”, the “development of tumors compared to mice injected with saline” value ([4]; 3 μg PT (with or without 100 units murine IL-2) sc five and two days prior to B16 cells and three times weekly thereafter) was “slowed the development of tumors” and the “Average Tumor Size” value ([4]; B16 melanoma in C57 mice, sc 3 μg PT, 100 units IL-2, 20-31 days) was 191 mm^2. For the same substance, the “Number of Deaths” value ([4]; B16 melanoma in C57 mice, sc 3 μg PT, 100 units IL-2, total mice 12 (IL-2), 15 (PT), 24 (PT + IL-2)) was 1, the “Mice w/o Tumors” value ([4]; B16 melanoma in C57 mice, sc 3 μg PT, 100 units IL-2, total mice 12 (IL-2), 15 (PT), 24 (PT + IL-2), 20-31 days) was 1 and the “remission of established tumors” value ([4]; B16 melanoma, Table 2 and FIG. 2) was “did not cause remission of established tumors”. The “PT dose giving the best response” value ([4]; PT injected along with IL-2, per mouse) was 3 µg and the “PT dose with little protection” value ([4]; per mouse, with IL-2) was greater than 5 µg.
